Source: patent US20260007680A1, “Compounds and Their Use as PDE4 Activators” (Mironid Limited, priority 2022, published 2026)

Columns and labels:
m-IMCD3 cells = test: Inhibition of PGE2-stimulated in vitro cyst formation in 3D culture of m-IMCD3 cells (Experiment 4); assay type: cell-based, mouse; conditions: Mus musculus, mIMCD3, 144 h, 10 μM test compound, mean cyst area compared to 100% for (DMSO + PGE2) and 0% for DMSO control, read-out: % Cyst area* after incubation with 10 μM test compound
PDE4B2 = target: T1, PDE4B2 (Homo sapiens, UniProt Q07343); test: PDE assay, PDE4B2 short form (Experiment 1); assay type: biochemical; conditions: 100 μM test compound; mean % increase in counts over basal activity
T1 construct: the full length human PDE4B2 short isoform; made in house; cytosol fraction of cell lysate, prepared as described for PDE4D5
T1 sequence (Q07343 1-564 isoform Q07343-2): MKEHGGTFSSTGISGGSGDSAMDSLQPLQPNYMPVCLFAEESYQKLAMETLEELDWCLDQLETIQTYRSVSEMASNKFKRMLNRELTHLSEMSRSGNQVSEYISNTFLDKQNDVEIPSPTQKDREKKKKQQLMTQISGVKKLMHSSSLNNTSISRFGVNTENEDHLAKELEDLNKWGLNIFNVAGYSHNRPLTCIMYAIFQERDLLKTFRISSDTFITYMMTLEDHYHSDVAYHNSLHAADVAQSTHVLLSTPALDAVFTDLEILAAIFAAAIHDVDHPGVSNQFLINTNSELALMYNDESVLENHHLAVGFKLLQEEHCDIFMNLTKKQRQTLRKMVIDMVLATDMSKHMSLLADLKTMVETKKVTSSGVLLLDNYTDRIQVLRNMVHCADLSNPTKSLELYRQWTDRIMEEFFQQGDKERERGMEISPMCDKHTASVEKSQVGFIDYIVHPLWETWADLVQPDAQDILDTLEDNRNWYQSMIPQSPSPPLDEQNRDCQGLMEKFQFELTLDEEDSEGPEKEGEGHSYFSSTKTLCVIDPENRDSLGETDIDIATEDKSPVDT
Procedure: One suitable method of detecting whether or not a compound is capable of serving as an activator of a PDE4 long form is using a two-step radio-assay procedure described in Experiment 1. In summary, the method involves incubating a PDE4 long form with a test small molecule activator, together with [^3H]-labelled cAMP to assess alterations in the breakdown of cAMP to the 5′-adenosine monophosphate (5′-AMP) product. A sample of the reaction mixture from such an incubation is subsequently treated with snake venom 5′-nucleotidase to allow conversion of the nucleotide [^3H]-labelled 5′-AMP to the uncharged nucleoside [^3H]-labelled adenosine, which can be separated and quantified to assess PDE4 activity and the effect of the test compound (Thompson, W. J. and Appleman, M. M. Biochemistry 10: 311-316, 1971, with some modifications as described in: Marchmont, R. J. and Houslay, M. D. Biochem J. 187: 381-92, 1980).
Experiment 1: Measurement of Modulation of Enzyme Activity by PDE4 Long Form Activators of the Present Invention Using Full-Length Human PDE4 Isoforms; Long Forms PDE4D5, PDE4C3, PDE4B1 and Short Form PDE4B2 • (Marchmont, R. J. and Houslay, M. D. Biochem. J. 187: 381-92, 1980)
Where stable cell lines were generated the clonal isolates were expanded to obtain cell lines that stably expressed the full-length human PDE4 long isoforms and the full length human PDE4B2 short isoform. These were called the HEK-PDE4D5, HEK-PDE4B1 and HEK-PDE4B2 cell lines, respectively.
PDE assays were performed in thin walled V-bottomed 96-well plates. The assays were performed at a final concentration of 10 mM Tris/5 mM MgCl2 plus PDE4D5 cell lysate cytosol fraction, containing over-expressed PDE4D5, with and without test compound. The lysate/compound mix were incubated together for 15 min at room temperature on an orbital shaker prior to addition of [^3H] cAMP (final concentration 1 μM [^3H] cAMP; Perkin Elmer) to a final volume of 50 μL per reaction. The reactions were then incubated for 10 minutes at 30° C., terminated by heating for 2 min at 95° C. and allowed to cool. Snake venom (12.5 μL of 1 mg/mL; Crotalus atrox, Sigma) was then added and the plates were agitated and incubated for a further 15 minutes at 30° C. Dowex ion exchange resin (Sigma, chloride form, 200-400 mesh; 200 μL; prepared as a 1:1 Dowex:water stock, thoroughly re-suspended and diluted 2:1 with ethanol) was then added to each well and the plates incubated for 15 min at room temperature on an orbital shaker ensuring sufficient agitation for resin suspension (550 RPM). The reaction mixture was then transferred to a 96 well filter plate (Millipore; 0.45 μm pore size) and filtered into a receiving 96-well plate to remove the dowex suspension. 30 μL of the filtered solution was then transferred to the wells of an Opti-plate (Perkin Elmer) 96 well assay plate and 120 μL of Microscint 40 scintillation fluid was added. The plate was then placed on an orbital shaker for 10 min at high speed (900 rpm) to mix the sample with scintillation fluid prior to quantitation using a plate based scintillation counter (Top-Count).
The % increase in counts in the presence of test compound at a particular concentration indicates the % increase in enzyme activity at that concentration.

activation at 100 µM (PDE4B2) | Compound | activity at 10 µM (m-IMCD3 cells)
-6% | Cc1cncc(-c2nc3cc(C(=O)N[C@H]4CCOc5ccccc54)ccc3[nH]2)c1 [Example 4, (S)—N-(chroman-4-yl)-2-(5-methylpyridin-3-yl)-1H-benzo[d]imidazole-5-carboxamide] | 18%
-39% | Cc1ccc(-c2nc3cc(C(=O)N[C@H]4CCOc5ccccc54)ccc3[nH]2)cn1 [Example 2, (S)—N-(chroman-4-yl)-2-(6-methylpyridin-3-yl)-1H-benzo[d]imidazole-5-carboxamide] | 17%
5% | Cc1cncc(-c2nc3ccc(C(=O)N[C@H]4CCOc5ccccc54)cc3n2C)c1 [Example 28, (S)—N-(chroman-4-yl)-1-methyl-2-(5-methylpyridin-3-yl)-1H-benzo[d]imidazole-6-carboxamide] | 8%
-8% | Cc1ccncc1-c1nc2cc(C(=O)N[C@H]3CCOc4ccccc43)ccn2n1 [Example 53, (S)—N-(chroman-4-yl)-2-(4-methylpyridin-3-yl)-[1,2,4]triazolo[1,5-a]pyridine-7-carboxamide] | 20%
